Results published in PubChem BioAssay (NCI).
Values joined by “and” are separate entries in the source; they are usually repeats but may differ in a detail not shown here. Equal values may be shown once.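 Five concentrations, 48 hours, 96-well plates. Abbreviation: GI50, concentration required for 50% inhibition of growth. TGI marks complete inhibition of growth.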

How the values were obtained:
Assay in all cases: NCI anticancer screen, dose series, 48 h
LOX IMVI melanoma = tested on: LOX IMVI melanoma
786-0 renal = tested on: 786-0 renal
SNB-19 CNS = tested on: SNB-19 CNS
SN12C renal = tested on: SN12C renal
SK-OV-3 ovarian = tested on: SK-OV-3 ovarian
MCF7 breast = tested on: MCF7 breast
HCT-15 colon = tested on: HCT-15 colon
NCI-H23 lung = tested on: NCI-H23 lung
CCRF-CEM leukemia = tested on: CCRF-CEM leukemia
EKVX NSCLC = tested on: EKVX NSCLC

Structure (SMILES)	GI50 (LOX IMVI melanoma)	TGI (LOX IMVI melanoma)	GI50 (786-0 renal)	TGI (786-0 renal) [µM]	GI50 (SNB-19 CNS)	TGI (SNB-19 CNS)	GI50 (SN12C renal)	TGI (SN12C renal)	GI50 (SK-OV-3 ovarian)	TGI (SK-OV-3 ovarian)	GI50 (MCF7 breast)	TGI (MCF7 breast)	GI50 (HCT-15 colon)	TGI (HCT-15 colon)	GI50 (NCI-H23 lung)	TGI (NCI-H23 lung)	GI50 (CCRF-CEM leukemia) [µM]	TGI (CCRF-CEM leukemia) [µM]	GI50 (EKVX NSCLC)	TGI (EKVX NSCLC)
COc1ccc2c(c1)/C(=N/OC(C)=O)c1c-2c(OC)nc2ccccc12	> 100 µM	> 100 µM	> 100 µM	> 100	> 100 µM	> 100 µM	59.9 µM	> 100 µM	48.1 µM	> 100 µM	88.3 µM	> 100 µM	> 100 µM	> 100 µM	> 100 µM	> 100 µM	> 100	> 100	> 100 µM	> 100 µM
Fc1ccc(Nc2nc(Nc3ccc(-c4nc5ccccc5[nH]4)cc3)c3cn[nH]c3n2)cc1	1.79 µM	3.62 µM	1.63 µM	3.11	3.16 µM	9.61 µM	1.99 µM	4.47 µM	5.03 µM	17.5 µM	1.74 µM	4.12 µM	1.76 µM	4.78 µM	–	–	2.63	6.9	2.5 µM	8.28 µM
NS(=O)(=O)c1ccc(N=Nc2c[nH]c(=O)c(O)c2)cc1	–	> 100 µM	–	> 100	–	> 100 µM	–	> 100 µM	–	> 100 µM	–	> 100 µM	–	> 100 µM	–	> 100 µM	–	44.1	–	> 100 µM
Cc1ccc(-c2nc3sc(C)cn3c2/C=C2\C(=O)Nc3ccc(Cl)cc32)cc1	13.8 µM	26.7 µM	10.3 µM	22	10.6 µM	27.7 µM	15 µM	29.8 µM	7.05 µM	25.1 µM	7.66 µM	22.3 µM	17.2 µM	34.4 µM	12.4 µM	26 µM	29.3	93.6	16 µM	39.3 µM
N#Cc1c(N)nc(N2CCOCC2)c(C#N)c1-c1c(Cl)cccc1Cl	5.88 µM	24 µM	12.9 µM	36.7	6.09 µM	25.6 µM	6.17 µM	33.2 µM	4.09 µM	21 µM	2.92 µM	16.4 µM	4.04 µM	25.8 µM	–	–	4.91	46.6	7.92 µM	> 100 µM
Oc1[nH]c2ccccc2c1C=Nc1ccc(-n2cncn2)cc1	> 19.2 µM	> 25 µM	> 25 µM	> 25	> 25 µM	> 25 µM	14.6 µM	> 25 µM	> 15.7 µM	> 25 µM	> 25 µM	> 25 µM	18.8 µM	> 25 µM	> 21.9 µM	> 25 µM	3.06	> 25	> 25 µM	> 25 µM
COc1ccc2c(c1)nnc1c3cccnc3[nH]c21	0.758 µM and 0.403 µM	4.22 µM and 2.61 µM	0.509 µM and 2.23 µM	–	7.61 µM and 9.99 µM	18.7 µM and 33.4 µM	1.63 µM and 1.68 µM	7.77 µM and 10.7 µM	2.69 µM and 2.38 µM	13.5 µM and 12.5 µM	0.228 µM and 0.209 µM	0.966 µM and 1.41 µM	2.26 µM and 2.3 µM	50 µM and 12.9 µM	5.5 µM and 3.04 µM	14.1 µM and 14.9 µM	0.0372	> 100	2.82 µM and 6.62 µM	50 µM and > 100 µM
